Assay results as given in patent publication US12557812B2, “Method and composition for water treatment” (BROMINE COMPOUNDS LTD., priority 2019, dated 2026).
Entries after “also recorded” stand apart in the source; their conditions may differ. Like-named read-outs stand apart in the source and are kept apart here.

Legend:
[1] = tested on: Pseudomonas aeruginosa biofilm; experiment: Sequential application of CDA then biocide on 3-day-old biofilm grown in CDC biofilm reactor (single tube method); format: cell-based; conditions: for effect on biofilm of biocides applied alone, compared with each other: Example 8, 5 ppm, 1 h (FIG. 17)
[2] = tested on: biofilm formed by mixed bacteria (Staphylococcus aureus 6538, Bacillus mycoides 6462 and Pseudomonas aeruginosa 700888); experiment: Sequential application of CDA then biocide on mixed-bacteria biofilm grown in CDC biofilm reactor; format: cell-based
[3] = tested on: P. aeruginosa strain PA14 biofilm; experiment: Simultaneous application of CDA and biocide on 3-day biofilm in 24-well plates; format: cell-based, Pseudomonas aeruginosa; conditions: for Log reduction vs. control: biocide alone / Enhancement / Log reduction vs. control: combination of the 310 nm CDA and biocide: biocide 10 ppm; for Enhancement: simultaneous 310 nm CDA; for Log reduction vs. control: combination of the 310 nm CDA and biocide: simultaneous application
Protocol: The effect of bromine-containing biocide in combination with CDA on pre-grown biofilms was studied. The experiment was carried out utilizing (A) the P. aeruginosa strain PA14 and (B) mixed bacterial species derived from environmental and industrial water.
Bacteria were cultured in EPRI medium supplemented with Hutners mineral solution and glucose (0.2%). Microorganisms were incubated at room temperature (22° C.), under aerobic conditions with shaking. The biofilm culture system used included polystyrene 24-well plates that were treated with protein to enhance attachment and growth of biofilm bacteria according to the method described in Davies D G, Marques C N, 2009, J Bacteriol 191:1393-1403.
Following inoculation with 1 mL bacterial culture, spent medium was removed and replaced with sterile medium every 24 hours for 3 days, and a final medium exchange was performed 3 hours prior to treatment. Additionally, the medium was exchanged prior to treatment in order to remove planktonic bacteria. Treatments consisted of 100 μL of 310 nM CDA and bromine-containing biocide, or bromine-containing biocide alone at concentrations used in commercial water treatment, water was used as a carrier, for a contact time determined by activity of each biocide and ranging from 1 hour to 24 hours, as detailed below for each of the tested biocides.
Following the treatment, the medium from each well was removed by pipet and 1 mL of DE neutralization broth was added in order to stop the treatment. Bacteria from each well were then removed by scraping the biofilm formed in the well with a sterile cell-scraper, and 1.0 mL of culture was transferred to chilled (4° C.) 9.0 mL DE neutralizing broth and homogenized for 15 seconds at 40,000 rpm on ice. Further dilutions were performed prior to enumeration (further neutralizing biocide activity). Recovery of bacteria were tested at different dilutions of biocide in water, in LB medium with thioglycolate and in DE neutralizing broth to ensure the active agent was properly neutralized. Viable bacteria were enumerated via the drop plate method. Each biocide was evaluated using 24-well plates with 8 wells each for the control cultures (Ctl) inoculated with P. aeruginosa but not treated, a CDA minus test (−CDA) treated with bromine-containing biocide only, and a CDA plus test treated with bromine-containing biocide and CDA (+CDA).

[4] = tested on: mix of planktonic bacteria (E. Coli ATCC 11229, S. aureus ATCC 6538, Enterobacter aerogenes ATCC 130489, P. aeruginosa ATCC 13388); experiment: Quantitative suspension test (modified EN 1040) on planktonic bacteria, sequential CDA then biocide; format: cell-based; conditions: 2.5 ppm BCDMH 3 h, 310 nM CDA 1 h before; TOC=30 ppm, 30° C.
Protocol: 310 nM CDA and bromine-containing biocide were introduced into a mix of planktonic bacteria in a medium containing different levels of organic loading (TOC 10-3000 ppm). High organic loading tends to reduce the efficacy of antimicrobial agents in industrial applications and, therefore, the test was aimed to mimic these conditions. The test was performed in accordance with the modified European standard EN 1040: 2005: “Chemical disinfectants and antiseptics—Quantitative suspension test for the evaluation of basic bactericidal activity of chemical disinfectants and antiseptics—Tests method and requirements (phase 1)”. 19 ml of phosphate buffer solution (pH=7) including tryptone in order to obtain a solution of TOC=30 ppm, and 1 ml of the tested bacteria suspension (consisted of E. Coli (ATCC 11229), S. aureus (ATCC 6538), Enterobacter aerogenes (ATCC 130489) and P. aeruginosa (ATCC 13388)), at a concentration of 1.5×10^8-5×10^8 CFU/ml, were placed into a container of suitable capacity. A stopwatch was started immediately and the container was placed in a water bath controlled at 30° C.
The activity was determined with 2.5 ppm BCDMH alone for a contact time of 3 hours. […] Countable plates were counted and the number of colony-forming units was determined, for each plate.

[5] = Storage stability of biocide/CDA liquid concentrates (HPLC); format: physicochemical
Protocol: 22 mg of cis-2-decenoic acid (CiVentiChem, 96.72% purity) were charged into 50 ml flask, equipped with a stirrer 3.99 gr of C-103 (ICL, batch 640160147) were added, followed by 9.97 gr of PEG200 (Merck 8.07483.5000 Lot 56904983 451), 5.95 gr of DI water and 22 mg of BHT (Aldrich B1378-100G, BCBH9491V). The obtained solution was stirred till complete clarification; sonication at +30° C. is recommended if some particles are observed. Clear colorless solution of a total […] and 20:50:30:0.1:0.1 weight ratio of C103-PEG200-H2O-CDA-BHT was obtained.
The solution was tested to determine the stability of the biocide and CDA and under storage at 25° C. over a two-month period.
47.6 mg or cis-2-decenoic acid (CiVentiChem, 96.72% purity) were charged into 50 ml flask, equipped with a stirrer. 9.01 gr of Bronopol (ICL, batch 17101607) were added, followed by 18.03 gr of propylene glycol (Biolab 16200201 Lot 1007861), 3.0 gr of DI water and 31.2 mg of BHT (Aldrich B1378-100G, BCBH9491V). After stirring for several minutes, undissolved traces of BHT were filtered through filtering paper for BHT particle removal. Clear colorless solution of a total 30 gr and 30:60:10:0.158:0.1 weight ratio of Bronopol-PG-H2O-CDA-BHT was obtained.

P. aeruginosa biofilm = experiment: Simultaneous application of CDA salt form and biocide on 3-day biofilm, CDC biofilm reactor, pH 8-9; format: cell-based, Pseudomonas aeruginosa; conditions: 310 nM CDA, 1 h
[6] = Stepwise acidification of CDA sodium/lithium salt (pKa); format: physicochemical

CC1(C)C(=O)N(Cl)C(=O)N1Br [BCDMH, 1-bromo-3-chloro-5,5-dimethylhydantoin]
enhancement by combined treatment relative to biocide alone ([1]; 10 ppm BCDMH, 31 nM commercial CDA (FIG. 13)): 4.5 log units
enhancement by combined treatment relative to biocide alone ([1]; 10 ppm BCDMH, 310 nM commercial CDA (FIG. 13)): 4.5 log units
enhancement by combined treatment relative to biocide alone ([1]; 10 ppm BCDMH, 3100 nM commercial CDA (FIG. 13)): 5.5 log units
effect of 5.0 ppm biocide with 310 nM CDA relative to 10 ppm biocide without CDA ([1]; Example 3, sequential, FIG. 14): comparable
reduction by biocide/CDA combination versus the solely applied biocide ([1]; Example 8, 5 ppm biocide/310 nM CDA, sequential (FIG. 17)): 4.5 log units
effect on biofilm of biocides applied alone, compared with each other [1]: comparable effect
Log reduction vs. control: biocide alone ([1]; biocide 10 ppm, 1 h contact time, 3-day-old biofilm): ~3.5 log units
Enhancement ([1]; biocide 10 ppm, 310 nM CDA combination vs biocide alone): ~2.5 log units
Log reduction vs. control: combination of the 310 nM CDA and biocide ([1]; biocide 10 ppm, 1 h CDA 310 nM then 1 h biocide): ~6 log units
enhancement by combined treatment relative to biocide alone ([1]; text of Example 2, biocide 10 ppm, 310 nM commercial CDA (97% by GC)): ~2 log units
enhancement by combined treatment relative to biocide alone ([1]; text of Example 2, biocide 10 ppm, 310 nM crude CDA (90% by GC)): ~2 log units
biofilm reduction by biocide alone ([1]; text of Example 2, biocide 10 ppm, 1 h): ~3 log units
biofilm reduction by biocide alone ([2]; biocide 5 ppm or 10 ppm, mixed bacteria biofilm): reduces the biofilm
enhancement by combined treatment relative to biocide alone ([2]; biocide 5 ppm, 310 nM commercial CDA, mixed bacteria biofilm (FIG. 12A)): ~2.5 log units
enhancement by combined treatment relative to biocide alone ([2]; biocide 10 ppm, 310 nM commercial CDA, mixed bacteria biofilm (FIG. 12B)): ~5.5 log units
Log reduction vs. control: biocide alone ([2]; biocide 10 ppm, 1 h, biofilm formed by mixed bacteria): ~2 log units
Enhancement ([2]; biocide 10 ppm, 310 nM CDA combination vs biocide alone, mixed bacteria biofilm): ~5.5 log units
Log reduction vs. control: combination of the 310 nM CDA and biocide ([2]; biocide 10 ppm, 1 h CDA 310 nM then 1 h biocide, mixed bacteria biofilm): ~7.5 log units
log reduction of biocide and CDA compared with biocide alone ([3]; 10 ppm BCDMH, 310 nM CDA, one hour (FIG. 4)): 2
Log reduction vs. control: biocide alone ([3]; 2 hours contact time): ~4 log units
Enhancement ([3]; 2 hours contact time): ~2 log units
Log reduction vs. control: combination of the 310 nm CDA and biocide ([3]; 2 hours contact time): ~6 log units
enhancement by CDA and biocide in sequence compared with biocide without CDA [4]: 2 log units

CCCCCCC/C=C\C(=O)O [CDA, cis-2-decenoic acid]
effect of CDA alone on biofilm compared to the control [1]: no useful effect
effect of CDA alone on biofilm compared to the control ([1]; 310 nM CDA, commercial (97%) or crude (90%), 1 h): no useful effect
biocidal action of CDA alone (reduction of bacterial counts) ([1]; CDA on its own, broad concentration range, even >3000 nM): failed to demonstrate biocidal action
effect of CDA alone on biofilm compared to the control ([2]; 310 nM commercial CDA, mixed bacteria biofilm): no useful effect
degradation under storage (HPLC) ([5]; Example 6 concentrate C103-PEG200-H2O-CDA-BHT 20:50:30:0.1:0.1, 25° C., two months): Neither DBNPA nor CDA underwent degradation
degradation under storage (HPLC) ([5]; Example 7 concentrate Bronopol-PG-H2O-CDA-BHT 30:60:10:0.158:0.1, 25° C., two months): Neither bronopol nor CDA underwent degradation
effect of CDA alone on biofilm compared to the control (P. aeruginosa biofilm): no useful effect
pKa [6]: 6.5 to 7.5

OCl [sodium hypochlorite, Sodium hypochlorite, reference compound]
reduction by biocide/CDA combination versus the solely applied biocide [1]: 2 log units
effect on biofilm of biocides applied alone, compared with each other [1]: comparable effect

O=[N+]([O-])C(Br)(CO)CO [Bronopol, 2-bromo-2-nitro-1,3-propanediol]
reduction of number of bacteria by addition of CDA to the biocide treatment ([3]; 10 ppm bronopol, 310 nM CDA, two hours of treatment (FIG. 2A)): more than an order of magnitude
Log reduction vs. control: biocide alone ([3]; 24 hours contact time): ~6 log units
Log reduction vs. control: biocide alone ([3]; 24 hours contact time, listed as bronopol): very effective in reducing biofilm
Enhancement ([3]; 24 hours contact time): ~3 log units
Log reduction vs. control: combination of the 310 nm CDA and biocide ([3]; 24 hours contact time): effective in eradicating P. aeruginosa biofilm; also recorded: biofilm eradication
degradation under storage (HPLC) [5]: Neither bronopol nor CDA underwent degradation
